Experimental data from patent US20120122860A1, “SOLID FORMS OF SULFONAMIDES AND AMINO ACIDS” (Plexxikon, Inc., priority 2009, published 2012).

Legend:
B-Raf V600E = B-Raf V600E (Homo sapiens, UniProt P15056, V600E); assay: Kinase activity assay, B-Raf V600E; format: biochemical; conditions: read-out: activity toward kinase B-Raf V600E, IC50
C-Raf = C-Raf (Homo sapiens, UniProt P04049); assay: Kinase activity assay, C-Raf
B-Raf = B-Raf (Homo sapiens, UniProt P15056); assay: Kinase activity assay, B-Raf; format: biochemical; conditions: read-out: activity toward kinase B-Raf, IC50
TEC = target: T1, TEC (Homo sapiens, UniProt P42680); assay: Kinase activity assay, TEC
T1 sequence (P42680 1-631): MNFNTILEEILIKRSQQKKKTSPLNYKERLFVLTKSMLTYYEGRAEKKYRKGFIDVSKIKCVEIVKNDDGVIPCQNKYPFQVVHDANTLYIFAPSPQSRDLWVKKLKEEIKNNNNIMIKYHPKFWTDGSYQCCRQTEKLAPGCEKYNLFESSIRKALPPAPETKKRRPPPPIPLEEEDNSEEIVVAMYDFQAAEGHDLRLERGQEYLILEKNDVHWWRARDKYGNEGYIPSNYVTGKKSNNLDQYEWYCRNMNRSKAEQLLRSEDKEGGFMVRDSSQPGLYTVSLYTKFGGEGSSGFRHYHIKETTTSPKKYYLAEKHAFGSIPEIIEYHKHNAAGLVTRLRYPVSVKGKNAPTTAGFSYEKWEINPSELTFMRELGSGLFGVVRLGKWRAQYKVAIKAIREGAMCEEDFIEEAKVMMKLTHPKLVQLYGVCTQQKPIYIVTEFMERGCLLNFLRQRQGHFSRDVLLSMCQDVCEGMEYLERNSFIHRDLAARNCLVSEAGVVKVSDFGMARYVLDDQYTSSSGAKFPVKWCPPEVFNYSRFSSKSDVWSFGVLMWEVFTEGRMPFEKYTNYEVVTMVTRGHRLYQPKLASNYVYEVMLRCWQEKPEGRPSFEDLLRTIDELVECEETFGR

Kit = Kit (Homo sapiens, UniProt P10721); assay: Kinase activity assay, Kit
Src = Src (Homo sapiens, UniProt P12931); assay: Kinase activity assay, Src
Kdr = Kdr (Homo sapiens, UniProt P35968); assay: Kinase activity assay, Kdr
Sequence of Kdr (P35968 20-1356): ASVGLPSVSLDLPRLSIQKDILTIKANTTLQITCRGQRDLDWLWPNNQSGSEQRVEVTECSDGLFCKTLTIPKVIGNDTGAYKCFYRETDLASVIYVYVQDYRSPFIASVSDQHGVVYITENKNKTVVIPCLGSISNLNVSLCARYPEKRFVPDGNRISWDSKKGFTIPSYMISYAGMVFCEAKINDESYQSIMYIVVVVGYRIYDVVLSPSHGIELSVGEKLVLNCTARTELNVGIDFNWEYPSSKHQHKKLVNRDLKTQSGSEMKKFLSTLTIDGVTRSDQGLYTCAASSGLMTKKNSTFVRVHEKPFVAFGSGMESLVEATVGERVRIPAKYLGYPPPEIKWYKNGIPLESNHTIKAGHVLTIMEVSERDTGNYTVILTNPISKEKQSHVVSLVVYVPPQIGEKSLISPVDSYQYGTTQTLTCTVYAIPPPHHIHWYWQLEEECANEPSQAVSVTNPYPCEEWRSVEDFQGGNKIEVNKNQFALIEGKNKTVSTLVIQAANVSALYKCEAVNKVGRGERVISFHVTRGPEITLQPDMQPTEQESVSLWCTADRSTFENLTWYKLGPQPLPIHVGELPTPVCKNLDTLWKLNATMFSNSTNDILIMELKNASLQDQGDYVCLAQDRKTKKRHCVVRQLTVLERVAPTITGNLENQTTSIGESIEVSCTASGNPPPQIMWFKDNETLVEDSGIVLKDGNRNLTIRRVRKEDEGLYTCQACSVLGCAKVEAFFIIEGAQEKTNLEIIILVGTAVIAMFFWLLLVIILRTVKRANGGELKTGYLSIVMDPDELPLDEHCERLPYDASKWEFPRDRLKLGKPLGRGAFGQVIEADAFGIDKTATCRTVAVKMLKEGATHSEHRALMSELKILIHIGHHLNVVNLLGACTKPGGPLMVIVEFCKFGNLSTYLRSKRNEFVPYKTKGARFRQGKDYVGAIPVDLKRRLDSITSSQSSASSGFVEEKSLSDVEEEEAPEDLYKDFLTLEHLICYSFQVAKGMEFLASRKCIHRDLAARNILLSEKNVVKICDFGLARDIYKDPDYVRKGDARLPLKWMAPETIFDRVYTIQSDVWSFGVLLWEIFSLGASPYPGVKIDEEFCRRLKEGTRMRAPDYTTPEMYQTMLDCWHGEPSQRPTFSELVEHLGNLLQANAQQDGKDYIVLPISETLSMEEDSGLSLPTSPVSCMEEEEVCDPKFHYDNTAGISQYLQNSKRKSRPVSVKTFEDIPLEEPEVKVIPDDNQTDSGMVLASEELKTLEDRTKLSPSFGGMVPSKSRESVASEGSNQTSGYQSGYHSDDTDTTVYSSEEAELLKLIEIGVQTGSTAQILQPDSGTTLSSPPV

Sequence of B-Raf (P15056 whole entry): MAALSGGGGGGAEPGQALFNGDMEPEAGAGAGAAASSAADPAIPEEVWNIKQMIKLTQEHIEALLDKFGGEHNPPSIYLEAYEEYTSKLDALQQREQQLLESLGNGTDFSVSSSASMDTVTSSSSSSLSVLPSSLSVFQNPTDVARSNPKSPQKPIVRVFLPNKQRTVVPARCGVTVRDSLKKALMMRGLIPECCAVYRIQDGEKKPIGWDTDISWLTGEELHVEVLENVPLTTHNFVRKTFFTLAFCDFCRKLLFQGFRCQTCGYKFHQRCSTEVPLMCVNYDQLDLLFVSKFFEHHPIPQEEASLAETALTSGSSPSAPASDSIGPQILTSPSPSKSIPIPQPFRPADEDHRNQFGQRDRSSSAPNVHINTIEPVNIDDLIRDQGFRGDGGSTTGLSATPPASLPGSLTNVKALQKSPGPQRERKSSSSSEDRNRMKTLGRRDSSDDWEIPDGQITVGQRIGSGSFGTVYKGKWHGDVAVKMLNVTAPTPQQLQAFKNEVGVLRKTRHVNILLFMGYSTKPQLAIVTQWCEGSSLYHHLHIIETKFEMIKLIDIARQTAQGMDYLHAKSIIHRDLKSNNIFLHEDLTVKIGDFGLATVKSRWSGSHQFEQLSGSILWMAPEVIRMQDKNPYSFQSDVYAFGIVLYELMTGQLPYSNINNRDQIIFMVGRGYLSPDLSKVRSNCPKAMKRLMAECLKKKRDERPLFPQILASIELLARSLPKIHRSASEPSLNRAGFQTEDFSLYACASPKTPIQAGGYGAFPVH
Sequence of C-Raf (P04049 whole entry): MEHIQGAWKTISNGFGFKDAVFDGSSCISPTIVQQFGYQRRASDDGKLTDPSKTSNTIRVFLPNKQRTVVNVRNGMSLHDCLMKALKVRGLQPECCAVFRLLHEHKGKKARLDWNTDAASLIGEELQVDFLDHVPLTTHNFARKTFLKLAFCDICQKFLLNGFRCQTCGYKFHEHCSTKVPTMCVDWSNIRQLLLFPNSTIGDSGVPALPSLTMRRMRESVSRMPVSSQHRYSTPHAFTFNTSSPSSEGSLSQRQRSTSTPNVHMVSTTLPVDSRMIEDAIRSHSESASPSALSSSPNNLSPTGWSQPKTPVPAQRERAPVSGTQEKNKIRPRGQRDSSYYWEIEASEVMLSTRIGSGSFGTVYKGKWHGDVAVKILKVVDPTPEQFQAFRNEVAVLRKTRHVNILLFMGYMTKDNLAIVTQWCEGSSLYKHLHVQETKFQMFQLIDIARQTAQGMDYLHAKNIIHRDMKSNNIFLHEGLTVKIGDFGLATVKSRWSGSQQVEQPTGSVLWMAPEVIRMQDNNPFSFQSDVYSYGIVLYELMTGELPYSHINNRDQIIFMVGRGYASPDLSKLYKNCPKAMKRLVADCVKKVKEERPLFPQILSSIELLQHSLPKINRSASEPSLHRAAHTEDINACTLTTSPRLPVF
Sequence of B-Raf V600E (P15056 whole entry V600E): as the sequence (P15056 whole entry) above, with V600E counted along it
Sequence of Src (P12931 whole entry): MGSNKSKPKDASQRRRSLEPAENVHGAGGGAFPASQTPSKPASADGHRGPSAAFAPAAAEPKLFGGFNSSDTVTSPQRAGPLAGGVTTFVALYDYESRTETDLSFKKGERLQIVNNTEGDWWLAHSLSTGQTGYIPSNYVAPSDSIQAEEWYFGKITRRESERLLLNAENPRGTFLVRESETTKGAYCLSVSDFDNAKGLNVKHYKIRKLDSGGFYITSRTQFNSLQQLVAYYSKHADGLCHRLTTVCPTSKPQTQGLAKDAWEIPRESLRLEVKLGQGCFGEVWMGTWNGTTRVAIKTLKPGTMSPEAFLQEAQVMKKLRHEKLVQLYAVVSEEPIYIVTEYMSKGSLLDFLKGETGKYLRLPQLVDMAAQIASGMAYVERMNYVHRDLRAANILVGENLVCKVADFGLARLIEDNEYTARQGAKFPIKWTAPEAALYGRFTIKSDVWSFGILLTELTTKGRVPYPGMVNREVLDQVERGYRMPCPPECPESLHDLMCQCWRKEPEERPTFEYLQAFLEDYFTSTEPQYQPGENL
Sequence of Kit (P10721 26-976): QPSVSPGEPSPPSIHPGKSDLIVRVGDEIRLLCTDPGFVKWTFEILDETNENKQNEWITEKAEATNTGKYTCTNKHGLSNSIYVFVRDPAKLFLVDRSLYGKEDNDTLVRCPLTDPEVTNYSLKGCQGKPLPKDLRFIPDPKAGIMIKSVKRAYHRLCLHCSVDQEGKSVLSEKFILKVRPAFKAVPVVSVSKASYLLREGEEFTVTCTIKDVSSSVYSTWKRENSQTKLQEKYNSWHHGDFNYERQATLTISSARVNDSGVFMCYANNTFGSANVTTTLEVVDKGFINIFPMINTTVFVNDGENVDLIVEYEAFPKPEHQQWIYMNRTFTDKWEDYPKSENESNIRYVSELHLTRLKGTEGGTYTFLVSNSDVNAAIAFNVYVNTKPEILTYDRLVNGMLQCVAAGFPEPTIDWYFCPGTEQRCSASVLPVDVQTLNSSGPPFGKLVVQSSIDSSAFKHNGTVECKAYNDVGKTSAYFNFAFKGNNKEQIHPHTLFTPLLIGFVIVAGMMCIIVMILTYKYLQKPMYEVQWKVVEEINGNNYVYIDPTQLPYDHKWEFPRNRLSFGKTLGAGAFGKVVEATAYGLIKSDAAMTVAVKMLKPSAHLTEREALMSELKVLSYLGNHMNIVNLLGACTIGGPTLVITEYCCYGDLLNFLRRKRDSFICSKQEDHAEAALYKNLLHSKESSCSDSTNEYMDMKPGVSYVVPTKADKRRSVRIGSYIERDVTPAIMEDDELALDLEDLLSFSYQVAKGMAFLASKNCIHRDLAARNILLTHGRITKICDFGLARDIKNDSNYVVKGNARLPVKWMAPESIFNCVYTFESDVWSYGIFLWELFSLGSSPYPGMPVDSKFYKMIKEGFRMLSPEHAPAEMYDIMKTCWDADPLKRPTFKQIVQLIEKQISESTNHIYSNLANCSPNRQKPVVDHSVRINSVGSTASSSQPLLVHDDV

Structure (SMILES) | IC50 (B-Raf V600E) | IC50 (C-Raf) | IC50 (B-Raf) | IC50 (TEC) | IC50 (Kit) | IC50 (Src) | IC50 (Kdr)
N#Cc1cnc2[nH]cc(C(=O)c3c(F)ccc(NS(=O)(=O)c4cccnc4)c3F)c2c1 [P-2072, Pyridine-3-sulfonic acid [3-(5-cyano-1H-pyrrolo[2,3-b]pyridine-3-carbonyl)-2,4-difluoro-phenyl]-amide] | ≤ 10 µM | ≤ 10 µM | ≤ 10 µM | ≤ 10 µM |  |  | 
CC(C)S(=O)(=O)Nc1ccc(F)c(C(=O)c2c[nH]c3ncc(C#N)cc23)c1F [P-2282, Propane-2-sulfonic acid [3-(5-cyano-1H-pyrrolo[2,3-b]pyridine-3-carbonyl)-2,4-difluoro-phenyl]-amide] | ≤ 10 µM | ≤ 10 µM | ≤ 10 µM | ≤ 10 µM | ≤ 10 µM |  | 
COc1ccnc2[nH]cc(C(=O)c3c(F)ccc(NS(=O)(=O)CC(C)C)c3F)c12 [P-2306, 2-Methyl-propane-1-sulfonic acid [2,4-difluoro-3-(4-methoxy-1H-pyrrolo[2,3-b]pyridine-3-carbonyl)-phenyl]-amide] | ≤ 10 µM | ≤ 10 µM | ≤ 10 µM | ≤ 10 µM | ≤ 10 µM | ≤ 10 µM | 
CC(C)CS(=O)(=O)Nc1ccc(F)c(C(=O)c2c[nH]c3ncc(C#N)cc23)c1F [P-2307, 2-Methyl-propane-1-sulfonic acid [3-(5-cyano-1H-pyrrolo[2,3-b]pyridine-3-carbonyl)-2,4-difluoro-phenyl]-amide] | ≤ 10 µM | ≤ 10 µM | ≤ 10 µM | ≤ 10 µM | ≤ 10 µM |  | 
CCC(C)S(=O)(=O)Nc1ccc(F)c(C(=O)c2c[nH]c3nccc(OC)c23)c1F (stereo not shown) [P-2313, Butane-2-sulfonic acid [2,4-difluoro-3-(4-methoxy-1H-pyrrolo[2,3-b]pyridine-3-carbonyl)-phenyl]-amide] | ≤ 10 µM | ≤ 10 µM | ≤ 10 µM | ≤ 10 µM |  | ≤ 10 µM | ≤ 10 µM
COc1ccnc2[nH]cc(C(=O)c3c(F)ccc(NS(=O)(=O)CCC(F)(F)F)c3F)c12 [P-2330, 3,3,3-Trifluoro-propane-1-sulfonic acid [2,4-difluoro-3-(4-methoxy-1H-pyrrolo[2,3-b]pyridine-3-carbonyl)-phenyl]-amide] | ≤ 10 µM | ≤ 10 µM | ≤ 10 µM | ≤ 10 µM |  | ≤ 10 µM | 

Other lines, results leading:

IC50 (B-Raf V600E) | IC50 (C-Raf) | IC50 (B-Raf) | IC50 (TEC) | IC50 (Kit) | IC50 (Src) | IC50 (Kdr) | Structure (SMILES)
≤ 10 µM | ≤ 10 µM | ≤ 10 µM | ≤ 10 µM |  | ≤ 10 µM | ≤ 10 µM | COc1ccnc2[nH]cc(C(=O)c3c(F)ccc(NS(=O)(=O)N(C)C)c3F)c12 [P-2376, N,N-dimethylamino-sulfonic acid [2,4-difluoro-3-(4-methoxy-1H-pyrrolo[2,3-b]pyridine-3-carbonyl)-phenyl]-amide]
≤ 10 µM | ≤ 10 µM | ≤ 10 µM | ≤ 10 µM |  | ≤ 10 µM | ≤ 10 µM | COc1ccnc2[nH]cc(C(=O)c3c(F)ccc(NS(=O)(=O)N4CCCC4)c3F)c12 [P-2377, Pyrrolidine-1-sulfonic acid [2,4-difluoro-3-(4-methoxy-1H-pyrrolo[2,3-b]pyridine-3-carbonyl)-phenyl]-amide]
≤ 10 µM |  |  | ≤ 10 µM |  | ≤ 10 µM | ≤ 10 µM | CCN(CC)S(=O)(=O)Nc1ccc(F)c(C(=O)c2c[nH]c3nccc(OC)c23)c1F [P-2378, N,N-diethylamino-sulfonic acid [2,4-difluoro-3-(4-methoxy-1H-pyrrolo[2,3-b]pyridine-3-carbonyl)-phenyl]-amide]
≤ 10 µM | ≤ 10 µM | ≤ 10 µM | ≤ 10 µM |  |  | ≤ 10 µM | N#Cc1cnc2[nH]cc(C(=O)c3cccc(NS(=O)(=O)C4CCCC4)c3F)c2c1 [P-2417, Cyclopentanesulfonic acid [3-(5-cyano-1H-pyrrolo[2,3-b]pyridine-3-carbonyl)-2-fluoro-phenyl]-amide]
